Here are results for 4 molecules from patent US20140050773A1, “COMPOUND COMPRISING ALPHA-MSH FOR USE IN ENDODONTIC REGENERATION” (Universite De Strasbourg, priority 2010, published 2014).

In data set [1] the target is MCR receptors (melanocortin receptors) on human pulp fibroblasts. The data set is described as follows: cell-based or functional assay.
The subject of data set [2] is pulp fibroblasts. The data set is described as follows: Intracellular cAMP accumulation in pulp fibroblasts. Type of data set: cell-based, human. The note with it: 30 min; forskolin 3 μM, MTII 10 μg·mL-1; basal level 239±36 fmol/well. The procedure: Pulp fibroblasts (1×10^5) were plated in 24-well-plates in D-MEM® containing 1% antimicotic solution and 10% FBS (Life Technologies, Paisley, UK). The cultures were incubated at 37° C. in a humidified atmosphere of 5% CO2, and allowed to adhere for 2 h. Cells were then washed and incubated with […] Forskolin (positive control), the MC3/4R agonist MTII (10 μg·mL^−1), the MC1R agonist MS05 (10 μg·mL^−1), and PGA-α-MSH (10-300 μg·mL^−1) in the presence of 1 mM isobutylmethylxantine in serum-free medium and incubated for 30 min at 37° C. in a humidified atmosphere of 5% CO2. A non-treated group incubated in serum-free medium alone served as a negative control. Cell supernatants were then removed and the cells were lysed. Intracellular cAMP was quantified using a commercially available enzyme immunoassay kit and a standard curve constructed with 0-3200 fmol μg·mL-1 cAMP (Amersham Bioscience, Little Chalfont, U.K).
(In general: cAMP levels reflect the balance of adenylyl cyclase and phosphodiesterase activity.)

The test system of data set [3] is LPS-stimulated pulp fibroblasts. The data set is described as follows: TNF-α, IL-8 and IL-10 production by LPS-stimulated pulp fibroblasts (ELISA). The class given is cell-based, human. The procedure:
Human pulp fibroblasts were obtained from human third molar germ tissue extracted for orthodontic reasons (Dental School, Strasbourg). These tissues were used with the patient's informed consent and approval by the Research Ethics Committee. Human pulp fibroblasts and mouse embryo fibroblasts (NIH 3T3, a gift of IGBMC, Strasbourg, France) were cultured in Dulbecco's modified Eagle's medium (D-MEM®) containing 1% antimicotic solution and 10% FBS (Life Technologies, Paisley, UK). The cultures were incubated at 37° C. in a humidified atmosphere of 5% CO2. When the cells reached sub-confluence, they were harvested with trypsin and sub-cultured. The fibroblast cultures used for all experiments were from passages three to six. Fibroblasts (5×10^5) were seeded in 24-well plates (Nunc, CML, Nemours, France) and incubated with LPS (10 ng·mL^−1) from E, coli in the presence or absence of free α-MSH or PGA-Q-MSH coupled peptides, in D-MEM® without FBS. At different time-points of incubation, cells were centrifuged and the levels of TNF-α, IL-10 or IL-8 in cell-free supernatants were determined using commercially available ELISA kits (Endogen, Woburn, Mass.). Studies of the effects of multilayer films consisting of PGA-α-MSH coupled peptides were conducted by seeding 5×10^5 cells directly onto the film in a 24-well plate as previously described (Chluba et al. Biomacromolecules. 2001, 2:800-805). All experiments were performed at least three times. […]
(In general: ELISA stands for enzyme-linked immunosorbent assay.)

The test system of data set [4] is pulp fibroblasts. The class given is cell-based, human. The method, then:
(§1) Cell viability was determined by trypan blue exclusion. Cell proliferation was measured by the acid phosphatase method. Briefly, cells were washed with […] PBS. The buffer added to each well contains 0.1 M sodium acetate (pH 5.5), 0.1% of X-100 Triton and 10 mM of p-nitrophenyl phosphate [pNPP] (Sigma, St Quentin, France). After a 3 h-incubation at 37° C. with 5% 002 the reaction was stopped by the addition of 1 N sodium hydroxide and the absorbance was measured by spectrophotometer at 405 nm (Labsystems, iEMS Reader MF, Gibco). Cell viability and proliferation were measured at 24 and 96 hours. Cell spreading and adhesion were observed by confocal microscopy. AlamarBlue® (Serotec) was used to assess cellular proliferation. The AlamarBlue test is a non-toxic, water-soluble, calorimetric redox indicator that changes color in response to cell metabolism. […] After 6 hours, […] of incubation media was transferred to 96-well plates and measured at 590 nm and 630 nm in order to determine the percentage of AlamarBlue reduction. The ability of free α-MSH and PGA-α-MSH to promote proliferation and/or adhesion of fibroblasts was also determined. Cell viability was determined by trypan blue exclusion and the proliferation was measured by the acidic phosphatase method (FIG. 4).

Data set [5] has as its system pulp fibroblasts. The data set is described as follows: Cell proliferation by the acid phosphatase method. The class given is cell-based, human. The note with it: in solution, FIG. 4 lower part. The method, then:
as §1

Data set [6] relates to pulp fibroblasts. The data set is described as follows: Pulp fibroblast adhesion by confocal microscopy. Type of data set: cell-based, human. The note with it: 2 days of culture; FIG. 5.
Method: Cell spreading and adhesion were observed by confocal microscopy. […] In this study, 5×10^4 pulp fibroblasts were seeded on the top of LbL-coated 14 mm-diameter coverslips (n=3) placed on 24-well plates. […] After 2 days of proliferation, cells were fixed with 4% PFA during 1 hour, permeabilized with 0.1% Triton X-100 for 1 hour and incubated for 20 min with Alexa Fluor 546-conjugated phalloidin (Molecular Probes) for F-actin labeling and 5 min with 200 nM DAPI (Sigma) for nuclear staining. Cells were mounted on microscope slides using Vectashield (Vector) and imaged by confocal microscopy (Zeiss, LSM 510). CLSM observations were documented with a Zeiss LSM 510 microscope using a ×40/1.4 oil immersion objective at 0.4 μm z-section intervals. FITC fluorescence was detected after excitation at 488 nm with a cutoff dichroic mirror 488 nm and an emission band-pass filter 505-530 nm (green). All experiments were performed with cells in solution.

In data set [1], MTII (peptide) came in with an intracellular cAMP accumulation in pulp fibroblasts, 30 min of 459 fmol/well.

With MTII, the cAMP concentration in the data set on pulp fibroblasts [2] is listed as 459±14 fmol/well.

The molecule `C=C[C@@]1(C)CC(=O)[C@]2(O)[C@@]3(C)[C@@H](O)CCC(C)(C)[C@@H]3[C@H](O)[C@H](OC(C)=O)[C@@]2(C)O1` [forskolin, Forskolin] registered a cAMP concentration in the data set on pulp fibroblasts [2] of 3367±242 fmol/well.

Take “HS—CH2CH2-Ser-Tyr-Ser-Nle-Glu-His-D-Phe-Arg-Trp-Gly-Lys-Pro-Val-COOH [α-MSH]”: the “LPS-induced IL-8 secretion” value in data set [3] (100 μg·mL^−1, 6 h time period) is reported as “no inhibition”. Further, the “IL-10 production by LPS-stimulated pulp fibroblasts” value in data set [3] (LPS 10 ng mL^−1, 100 μg·mL-1 peptide, late (4 hours)) is given as “induced significant levels”. Also, the “amount of IL-8 produced (LPS-stimulated)” value in data set [3] (concentration increased to 400 μg·mL-1, data not shown) is listed as “did not change”. Further, the “LPS induced TNF-α secretion” value in data set [3] (early timepoints (20 min to 2 h), LPS 10 ng mL^−1, 100 μg·mL-1 peptide) is recorded as “significantly inhibited”; in data set [3] (later time-points (4-6 h), LPS 10 ng mL^−1, 100 μg·mL-1 peptide), “this effect was lost”. Also, the “viability of pulp fibroblasts” value with pulp fibroblasts [4] was “not the viability”. Also, the “proliferation of pulp fibroblasts” value in the data set with pulp fibroblasts [5] is listed as “inhibits the proliferation”; in the data set with pulp fibroblasts [5] (listed as free α-MSH), “without effect”. In addition, the “adhesion of pulp fibroblasts” value in the data set on pulp fibroblasts [6] is “without effect”.
